Laboratory results as given in patent US20080064735A1, “Method for controlling harmful organisms in crops of useful plants” (priority 2001, published 2008).

Tested on: Plutella xylostella
Test: Plutella xylostella greenhouse spray test on cauliflower and Bt cauliflower (cry9C)
Assay type: in vivo
Experimental: Seven-week-old cauliflower plants (ordinary cauliflower, variety: Marner Allfrüh) and Bt cauliflower ([…], contains cry9C) were sprayed with the test insecticides with the aid of a track sprayer (200 l/ha). After drying, each of the plants was infected with 5 L2 larvae and 5 L3 larvae of Plutella xylostella. After 2, 4 and 7 days (DAA), feeding damage and mortality were scored. The test was carried out in a greenhouse at 23° C. and a relative atmospheric humidity of 60%.

[1] = 1 g active substance/ha, 2 DAA, Bt cauliflower
[2] = 1 g active substance/ha, 2 DAA, cauliflower
[3] = 1 g active substance/ha, 4 DAA, Bt cauliflower
[4] = 1 g active substance/ha, 4 DAA, cauliflower
[5] = 1 g active substance/ha, 7 DAA, Bt cauliflower
[6] = 1 g active substance/ha, 7 DAA, cauliflower
[7] = 3 g active substance/ha, 2 DAA, Bt cauliflower
[8] = 3 g active substance/ha, 2 DAA, cauliflower
[9] = 3 g active substance/ha, 4 DAA, Bt cauliflower
[10] = 3 g active substance/ha, 4 DAA, cauliflower
[11] = 3 g active substance/ha, 7 DAA, Bt cauliflower
[12] = 3 g active substance/ha, 7 DAA, cauliflower
[13] = 10 g active substance/ha, 2 DAA, Bt cauliflower
[14] = 10 g active substance/ha, 2 DAA, cauliflower
[15] = 10 g active substance/ha, 4 DAA, Bt cauliflower
[16] = 10 g active substance/ha, 4 DAA, cauliflower
[17] = 10 g active substance/ha, 7 DAA, Bt cauliflower
[18] = 10 g active substance/ha, 7 DAA, cauliflower
[19] = 30 g active substance/ha, 2 DAA, Bt cauliflower
[20] = 30 g active substance/ha, 2 DAA, cauliflower
[21] = 30 g active substance/ha, 4 DAA, Bt cauliflower
[22] = 30 g active substance/ha, 4 DAA, cauliflower
[23] = 30 g active substance/ha, 7 DAA, Bt cauliflower
[24] = 30 g active substance/ha, 7 DAA, cauliflower
[25] = 100 g active substance/ha, 2 DAA, Bt cauliflower
[26] = 100 g active substance/ha, 2 DAA, cauliflower
[27] = 100 g active substance/ha, 4 DAA, Bt cauliflower
[28] = 100 g active substance/ha, 4 DAA, cauliflower
[29] = 100 g active substance/ha, 7 DAA, Bt cauliflower
[30] = 100 g active substance/ha, 7 DAA, cauliflower

CS/C(C)=N\OC(=O)N(C)SN(C)C(=O)O/N=C(\C)SC [Thiodicarb]
90%: % mortality [13]
0%: % feeding damage [1] | % mortality [2] | % feeding damage [3] | % mortality [4] | % feeding damage [5] | % mortality [6] | % feeding damage [7] | % mortality [8] | % feeding damage [9] | % mortality [10] | % feeding damage [11] | % mortality [12] | % feeding damage [13] | % mortality [14] | % feeding damage [15] | % mortality [16] | % feeding damage [17] | % mortality [18] | % feeding damage [19] | % mortality [20] | % feeding damage [21] | % mortality [22] | % feeding damage [23] | % mortality [24] | % feeding damage [25] | % mortality [26] | % feeding damage [27] | % mortality [28] | % feeding damage [29] | % mortality [30]
10%: % feeding damage [2] | % feeding damage [4] | % feeding damage [8] | % feeding damage [10] | % feeding damage [14] | % feeding damage [16] | % feeding damage [20] | % feeding damage [22] | % feeding damage [26] | % feeding damage [28] | % feeding damage [30]
15%: % feeding damage [6] | % feeding damage [12] | % feeding damage [18] | % feeding damage [24]
100%: % mortality [1] | % mortality [3] | % mortality [5] | % mortality [7] | % mortality [9] | % mortality [11] | % mortality [15] | % mortality [17] | % mortality [19] | % mortality [21] | % mortality [23] | % mortality [25] | % mortality [27] | % mortality [29]

C/C(=N\C#N)N(C)Cc1ccc(Cl)nc1 [Acetamiprid]
12%: % feeding damage [16] | % feeding damage [22]
10%: % feeding damage [14] | % feeding damage [20]
0%: % feeding damage [13] | % mortality [14] | % feeding damage [15] | % mortality [16] | % feeding damage [17] | % mortality [18] | % feeding damage [19] | % mortality [20] | % feeding damage [21] | % mortality [22] | % feeding damage [23] | % mortality [24]
15%: % feeding damage [18] | % feeding damage [24]
100%: % mortality [13] | % mortality [15] | % mortality [17] | % mortality [19] | % mortality [21] | % mortality [23]

CCc1nn(C)c(C(=O)NCc2ccc(Oc3ccc(C)cc3)cc2)c1Cl [Tolfenpyrad]
50%: % mortality [11] | % mortality [15] | % mortality [17]
100%: % mortality [21] | % mortality [23] | % mortality [27] | % mortality [29]
0%: % mortality [8] | % mortality [10] | % mortality [12] | % mortality [13] | % mortality [14] | % mortality [16] | % mortality [18] | % feeding damage [19] | % mortality [20] | % feeding damage [21] | % mortality [22] | % feeding damage [23] | % mortality [24] | % mortality [26] | % mortality [30]
3%: % feeding damage [7]
60%: % mortality [19]
10%: % mortality [7] | % feeding damage [8] | % feeding damage [9] | % feeding damage [10] | % feeding damage [11] | % feeding damage [12] | % feeding damage [13] | % feeding damage [14] | % feeding damage [15] | % feeding damage [16] | % feeding damage [17] | % feeding damage [18] | % feeding damage [20] | % feeding damage [22] | % feeding damage [24] | % feeding damage [25] | % feeding damage [27] | % feeding damage [29]
20%: % mortality [25] | % mortality [28]
30%: % mortality [9]
5%: % feeding damage [26] | % feeding damage [28] | % feeding damage [30]

N#Cc1nn(-c2c(Cl)cc(C(F)(F)F)cc2Cl)c(N)c1[S+]([O-])C(F)(F)F (stereo not drawn) [Fipronil]
4%: % feeding damage [20]
5%: % feeding damage [22] | % feeding damage [24]
8%: % feeding damage [14] | % feeding damage [16]
0%: % feeding damage [1] | % mortality [2] | % feeding damage [3] | % mortality [4] | % feeding damage [5] | % mortality [6] | % feeding damage [7] | % feeding damage [9] | % feeding damage [11] | % feeding damage [13] | % feeding damage [15] | % feeding damage [17] | % feeding damage [19] | % feeding damage [21] | % feeding damage [23] | % feeding damage [25] | % feeding damage [27] | % feeding damage [29]
70%: % mortality [1] | % mortality [20]
12%: % feeding damage [6] | % feeding damage [12]
100%: % mortality [3] | % mortality [5] | % mortality [7] | % mortality [9] | % mortality [11] | % mortality [13] | % mortality [15] | % mortality [17] | % mortality [19] | % mortality [21] | % mortality [22] | % mortality [23] | % mortality [24] | % mortality [25] | % mortality [26] | % mortality [27] | % mortality [28] | % mortality [29] | % mortality [30]
10%: % feeding damage [2] | % feeding damage [4] | % feeding damage [8] | % feeding damage [10] | % feeding damage [18]
1%: % feeding damage [26] | % feeding damage [28] | % feeding damage [30]
20%: % mortality [8] | % mortality [10] | % mortality [12] | % mortality [14] | % mortality [16]
50%: % mortality [18]
